Data: US10183944B2 (Asana Biosciences, LLC, priority 2011, dated 2019)
Read-outs that look alike come from different tables or passages of the source. Marks after values point to notes of the source that are not given here.

Experiments:
RBL2H3 cells = experiment: Degranulation assay: β-hexosaminidase release during immune complex mediated degranulation; assay type: cell-based, rat; conditions: Rattus norvegicus, RBL-2H3; for inhibition at 1 µM: read-out: Degranulation % inhibition at 1 μM; for EC50: read-out: Degranulation EC50
Outline: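 Fluorometric β-NAG read-out (Ex 355, Em 460 nm; 30 min, RT) of supernatant after DNP-BSA stimulation (45–60 min) of anti-DNP IgE-sensitized RBL2H3 cells. Compounds (0.5% DMSO) added 15 min before antigen; degranulation expressed as % β-hexosaminidase release or inhibition.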

[1] = system: Collagen Induced Arthritis (CIA) in female Lewis rats; experiment: In vivo chronic study: Collagen Induced Arthritis (CIA); parameters: species or system rat; conditions: 2 × 30 mg/Kg
Description: Collagen Induced Arthritis (CIA) is a well characterized model of human rheumatoid arthritis (RA) that can be induced in susceptible animals following immunization with type II collagen (cII) in Freund's adjuvant. […] Pathophysiology of CIA consists of T cell component, as evidenced by increased infiltration of T-cells in joint synovium and also, by attenuation of CIA in T-cell deficient mice. CIA development involves B cell component too, as is evidenced by circulating cII antibody in disease animals and also, failure to develop the disease in xid mice/B cell deficient mice/CXCR5 null mice. […] See, Pine, “Inflammation and bone erosion are suppressed in models of rheumatoid arthritis following treatment with a novel Syk inhibitor”, Clin. Immunol., 2007, 124(3):244-57; Xiong cha, “Suppression of the onset and progression of collagen-induced arthritis in rats by QFGJS, a preparation from an anti-arthritic Chinese herbal formula”, J. Ethnopharmacology (2007) 110:39-48; and Stolina, “The evolving systemic and local biomarker milieu at different stages of disease progression in rat collagen induced arthritis”, Biomarkers (2008) 13(7-8):692-712, which are herein incorporated by reference.
Female Lewis rats (8 per group, 6-8 weeks old) were immunized on day 1 with type II collagen (Immunization grade Bovine type II; Chondrex; Cat #20021) emulsified with Complete Freund's Adjuvant (Sigma; Cat# F5881) at a final concentration of 1.2 mg/mL). For the initial immunization, the animals were injected at the base of the tail with 300 μg of the cII (0.25 mL/rat). A booster injection of the same type II collagen emulsified with Incomplete Freund's Adjuvant (Sigma, Cat #F5506) (0.25 mL/rat) was given to the animals on day 8 at the base of the tail (100 μg). The final cII concentration in the booster was […].
Animals with an arthritic score of ≥1 were grouped and dosing with test compound (30 mg/kg bid) or methotrexate (0.5 mg/kg) started between about day 12 to day 14, with daily dosing of their respective compounds continuing for 10 days.
Edema: Paw volumes are measured by Plethysmometry for the animals before induction of CIA (Basal readings) and on Day 1, 3, 6 and 9 of dosing period. Both hind paw volumes were measured and edema was calculated by subtracting from the basal mean.
Arthritic score: Animals were scored for the symptoms of arthritis every day starting from Day of onset of disease till the end of the study. Both the hind paws were scored and the total scores were averaged and compared with control. The scoring pattern was as follows:
The percent inhibition of Edema was calculated with respect to control by the formula: […]
The percent inhibition of Arthritic score was calculated with respect to control by the formula: […]
Means of different groups were compared with control using one way ANOVA followed by Dunnett's test. Significance is represented as follows.

[2] = Assay Protocol A (24 well format)
[3] = Assay Protocol B (96 well format)

## Cl.O=c1[nH]ncc2nc(-c3ccccc3)nc(Nc3ccc(CN4CCNCC4)cc3)c12 [Example 7, 2-phenyl-4-(4-(piperazin-1-ylmethyl)phenylamino)pyrimido[4,5-d]pyridazin-5(6H)-one hydrochloride]
RBL2H3 cells; [2]
  inhibition at 1 µM: 92%
  EC50: 86 nM

## O=C(O)C1CCN(c2ccc(Nc3nc(-c4ccccc4)nc4cn[nH]c(=O)c34)cc2)CC1 [Example 13, 1-(4-(5-oxo-2-phenyl-5,6-dihydropyrimido[4,5-d]pyridazin-4-ylamino)phenyl)piperidine-4-carboxylic acid]
RBL2H3 cells; [2]
  inhibition at 1 µM: 100%
  EC50: 47 nM

## O=C(O)C1CC12CCN(c1ccc(Nc3nc(-c4ccccc4)nc4cn[nH]c(=O)c34)cc1)CC2 (stereo not drawn) [Example 19, 6-(4-(5-oxo-2-phenyl-5,6-dihydropyrimido[4,5-d]pyridazin-4-ylamino)phenyl)-6-azaspiro[2.5]octane-1-carboxylic acid]
[1]
  Percent inhibition of Edema (Day 9 of dosing): 5**
  Percent inhibition of Arthritic score (Day 10 of dosing): 20*
RBL2H3 cells; [2]
  inhibition at 1 µM: 100%
  EC50: 19 nM

## O=C(O)C1CC12CCN(c1ccc(Nc3nc(N4CCCCCC4)nc4cn[nH]c(=O)c34)cc1)CC2 (stereo not drawn) [Example 62, 6-(4-((2-(azepan-1-yl)-5-oxo-5,6-dihydropyrimido[4,5-d]pyridazin-4-yl)amino)phenyl)-6-azaspiro[2.5]octane-1-carboxylic acid]
[1]
  Percent inhibition of Edema (Day 9 of dosing): 69***
  Percent inhibition of Arthritic score (Day 10 of dosing): 81***
RBL2H3 cells; [3]
  inhibition at 1 µM: 100%
  EC50: 49 nM

## O=C(O)CC1CCN(c2ccc(Nc3nc(N4CCCCCC4)nc4cn[nH]c(=O)c34)cn2)CC1 [Example 108, 2-(1-(5-((2-(azepan-1-yl)-5-oxo-5,6-dihydropyrimido[4,5-d]pyridazin-4-yl)amino)pyridin-2-yl)piperidin-4-yl) acetic acid]
[1]
  Percent inhibition of Edema (Day 9 of dosing): 42***
  Percent inhibition of Arthritic score (Day 10 of dosing): 53***
RBL2H3 cells; [3]
  inhibition at 1 µM: 98%
  EC50: 68 nM

## N#CCC1CCN(c2nc(Nc3ccc(N4CCC(O)CC4)cc3)c3c(=O)[nH]ncc3n2)CC1 [Example 189, 2-(1-(4-((4-(4-hydroxypiperidin-1-yl)phenyl)amino)-5-oxo-5,6-dihydropyrimido[4,5-d]pyridazin-2-yl)piperidin-4-yl)acetonitrile]
[1]
  Percent inhibition of Edema (Day 9 of dosing): 90***
  Percent inhibition of Arthritic score (Day 10 of dosing): 94***
RBL2H3 cells; [3]
  inhibition at 1 µM: 98%
  EC50: 14 nM

## N#CCC1CCN(c2nc(Nc3ccc(N4CCN(CCO)CC4)cc3)c3c(=O)[nH]ncc3n2)CC1 [Example 191, 2-(1-(4-((4-(4-(2-hydroxyethyl)piperazin-1-yl)phenyl)amino)-5-oxo-5,6-dihydropyrimido[4,5-d]pyridazin-2-yl)piperidin-4-yl)acetonitrile]
[1]
  Percent inhibition of Edema (Day 9 of dosing): 90***
  Percent inhibition of Arthritic score (Day 10 of dosing): 100***
RBL2H3 cells; [3]
  inhibition at 1 µM: 92%
  EC50: 21 nM
